Reference: patent publication US12310933B2, “Treatment of demyelinating disorders” (The University of Chicago, priority 2013, dated 2025)

Experiments:
[1] = test system: C57BL/6J mice with chronic EAE; assay: Guanabenz/interferon co-administration in chronic EAE, onset of clinical symptoms; assay type: in vivo, mouse; conditions: for onset of clinical symptoms: daily from post immunization day 7
Description: Eight week old C57BL/6J female mice were immunized with MOG35-55/CFA to induce chronic EAE. […] Mice were scored daily for clinical symptoms (0=healthy, 1=flaccid tail, 2=ataxia and/or paresis of hindlimbs, 3=paralysis of hindlimbs and/or paresis of forelimbs, 4=tetraparalysis, 5=moribund or death). […] Onset of clinical symptoms began at approximately day 12 in saline-treated mice and at approximately day 13 in mice treated with interferon alone. […] While preferred embodiments of the present invention have been shown and described herein, it will be obvious to those skilled in the art that such embodiments are provided by way of example only. Numerous variations, changes, and substitutions will now occur to those skilled in the art without departing from the invention. It should be understood that various alternatives to the embodiments of the invention described herein may be employed in practicing the invention. It is intended that the following claims define the scope of the invention and that methods and structures within the scope of these claims and their equivalents be covered thereby.

[2] = test system: SJL mice with remitting/relapsing EAE; assay: Remitting/relapsing EAE (PLP139-151), clinical scores; assay type: in vivo, mouse
[3] = test system: differentiating rat oligodendrocyte precursor cells (drOPCs); assay: FDA/PI (fluorescein-diacetate/propidium iodide) live/dead cell viability assay, IFN-γ challenge; assay type: cell-based
Description: Interferon-γ is an inflammatory cytokine that is thought to contribute to multiple sclerosis exacerbations, therefore, treatment of cultured cells of the oligodendrocyte lineage with interferon-γ provides a useful cellular model of MS-related inflammation. drOPCs were isolated and purified to >95% homogeneity from 6-7 day old Sprague-Dawley rat cortices by immunopanning as previously described (Chan et al. 2004 Neuron 43:2; 183-191). Briefly, rat cortices were extracted, diced, and digested with papain at 37° C. Cells were then triturated and resuspended in panning buffer containing insulin, then sequentially immunopanned at room temperature on three plates containing Ran-2, GalC, and O4 antibodies from hybridomal supernatant. The remaining O4^+GalC^− OPCs were removed from the plates with trypsin, resuspended in growth media, and seeded at 37° C. onto pDL-coated flasks to facilitate proliferation. Once sufficient numbers were reached, OPCs were split, plated in differentiation media at 200,000 cells/well, and allowed to differentiate for 24 hours. […] Following 48 hours of treatment, media was removed and the cells were incubated in FDA/PI (fluorescein-diacetate/propidium iodide) for 3 minutes, rinsed with 1×PBS, and imaged for live/dead cell quantification. In living cells, non-fluorescent FDA is converted into fluorescein, giving off a bright green fluorescence. PI is membrane impermeable and therefore excluded from live cells. Therefore, green cells indicate viable cells and red cells indicate non-viable cells. […] Treatment with 200 U/ml IFN-γ alone reduced the number of green cells and increased the number of red cells (C). […] FIG. 2B illustrates the quantitation of the experiment in FIG. 2a. […] Treatment with IFN-γ alone caused a roughly 40-50% decrease in cell survival. […] Data is presented as the mean+/−SEM for an N=3/group. (*p<0.05, **p<0.005)

[4] = test system: C57BL/6J mice with experimental autoimmune encephalitis (EAE); assay: Chronic EAE (MOG35-55), clinical scores and symptom onset; assay type: in vivo, mouse
[5] = test system: differentiating rat oligodendrocyte precursor cells (drOPCs); assay: TUNEL assay for IFN-γ induced apoptosis; assay type: cell-based
Description: Cells were isolated as described previously and plated in chamber slides at 20,000 cells/chamber. Cells were then treated with the same IFN-γ and guanabenz protocol as described previously, then subjected to a TUNEL assay. […] FIG. 3B illustrates the quantitation of the experiment in FIG. 3a. […] Error bars represent mean±SEM for an N=3/group (*p<0.05, **p<0.005, ***p<0.0005)

[6] = test system: cultured rat cerebellar slices; assay: Myelin basic protein and toluidine blue staining of ex vivo cultured cerebellar slices treated with IFN-γ; assay type: cell-based; conditions: seven days
Description: Briefly, cerebellar sections were prepared from 6 day old Sprague-Dawley rat pups. […] Two to three sections were collected per well and grown in growth media with Fungizone. […] Sections were then stained for myelin-basic protein (A-E) and toluidine blue (F-H), used to visualize myelin and neuronal cytoarchitecture.

[7] = 5.0 μM guanabenz co-treatment with IFN-γ
[8] = interferon-beta 5,000 U/day/mouse alone

Molecule: N=C(N)N/N=C/c1c(Cl)cccc1Cl [guanabenz]
- onset of clinical symptoms ([1]; guanabenz 8 mg/kg alone): ~18 days
- average decrease in relapse severity ([2]; 8 mg/kg IP daily from beginning of remission): about 50%
- average decrease in relapse severity ([2]; 16 mg/kg IP daily from onset of remission): about 40%
- symptom severity during the remission phase, compared to vehicle ([2]; 16 mg/kg/day IP): greater decrease in symptom severity during the remission phase
- cell viability (green/red cells, FDA/PI) ([3]; 1.25 μM guanabenz + 200 U/ml IFN-γ, 48 hours): partially restored viability
- increase in cell survival compared to IFN-γ alone ([3]; 1.25 μM guanabenz + IFN-γ): roughly 25%
- cell viability (green/red cells, FDA/PI) ([3]; 2.5 μM guanabenz + 200 U/ml IFN-γ, 48 hours): partially restored viability
- increase in cell survival compared to IFN-γ alone ([3]; 2.5 μM guanabenz + IFN-γ): roughly 25%
- cell survival (FIG. 2B) ([3]; 5.0 μM guanabenz + IFN-γ): increased survival almost to control levels
- cell viability (green and red cells, FDA/PI) ([3]; 5.0 μM guanabenz alone, no IFN-γ, 48 hours): does not impact cell viability
- percent survival (FIG. 2B) ([3]; guanabenz alone vs untreated control): comparable percent survival
- clinical score by days post symptom onset ([4]; 4 mg/kg/day): Neither 4 mg/kg/day nor 16 mg/kg/day caused a significant reduction in clinical score
- average symptom onset ([4]; 4 mg/kg/day IP from PID 7): 19 days
- clinical score by days post symptom onset (symptom severity) ([4]; 8 mg/kg/day): significantly reduced symptom severity
- average symptom onset ([4]; 8 mg/kg/day IP from PID 7): about 22 days
- clinical score by days post symptom onset ([4]; 16 mg/kg/day): Neither 4 mg/kg/day nor 16 mg/kg/day caused a significant reduction in clinical score
- average symptom onset ([4]; 16 mg/kg/day IP from PID 7): about 25 days
- delay in symptom onset ([4]; all guanabenz doses (4-16 mg/kg/day), IP daily from PID 7): significant delay in symptom onset
- IFN-γ induced apoptosis (TUNEL, photomicrographs) [5, 7]: reduced IFN-γ induced apoptosis
- reduction of IFN-γ induced apoptosis compared to IFN-γ alone [5, 7]: about 87.5%
- myelin fiber and axonal structure ([6]; 2.5 μM guanabenz + 100 U/ml IFN-γ): restored intact, long myelin fiber and axonal structure
- myelin fiber and axonal structure ([6]; 5.0 μM guanabenz + 100 U/ml IFN-γ): restored intact, long myelin fiber and axonal structure
- myelin fiber and axonal structure ([6]; 10.0 μM guanabenz + 100 U/ml IFN-γ): restored intact, long myelin fiber and axonal structure

B1: interferon-beta (protein, UniProt P01575 22-182, looked up)
Interferon beta: INYKQLQLQERTNIRKCQELLEQLNGKINLTYRADFKIPMEMTEKMQKSYTAFAIQEMLQNVFLVFRNNFSSTGWNETIVVRLLDELHQQTVFLKTVLEEKQEERLTWEMSSTALHLKSYYWRVQRYLKLMKYNSYAWMVVRAEIFRNFLIIRRLTRNFQN
- delay of onset of clinical symptoms [1, 8]: did not significantly delay onset of clinical symptoms
- onset of clinical symptoms [1, 8]: ~13 days

B2: IFN-γ: inflammatory cytokine used to challenge cultured oligodendrocyte lineage cells and cerebellar slices (protein, UniProt P01579 24-161, looked up)
Interferon gamma: QDPYVKEAENLKKYFNAGHSDVADNGTLFLGILKNWKEESDRKIMQSQIVSFYFKLFKNFKDDQSIQKSVETIKEDMNVKFFNSNKKKRDDFEKLTNYSVTDLNVQRKAIHELIQVMAELSPAAKTGKRKRSQMLFRG
- decrease in cell survival ([3]; IFN-γ alone, 200 U/ml, 48 hours): 40-50%
- increase in apoptosis compared to control cells ([5]; IFN-γ alone): 2-3 fold
